Test results taken from the supplement of paper PMC11616607.

Legend:
Experiment in all cases: drug sensitivity score (DSS) from 5-point dose-response viability curve (DSS (area-under-curve based score)); higher = more sensitive (stronger growth inhibition or killing); extreme values may be limits of the assay
Details in all cases: exposure time: 72 h; concentration range: 5 concentrations over 10,000-fold range
OVCAR4 = test system: OVCAR4
Summary of the method: (§1)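 Ovarian cancer and normal ovarian cell lines were tested in 384-well plates, with drugs dispensed acoustically (Echo 550) in DMSO or water at five concentrations covering a 10,000-fold range. After 1,500 cells per well were added, plates were incubated for 3 days at 37°C and 5% CO2, and viability was read by CellTiter-Glo luminescence on a PHERAstar FS. Breeze software gave a drug sensitivity score for each cell line and drug, where a higher score means greater sensitivity. A value of zero means no response.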

Kuramochi = test system: Kuramochi
Summary of the method: as §1

Ovsaho = test system: Ovsaho
Summary of the method: as §1

JHOS2 = test system: JHOS2
Summary of the method: as §1

HOSE2C = test system: HOSE2C
Summary of the method: as §1

COV362 = test system: COV362
Summary of the method: as §1

OV90 = test system: OV90
Summary of the method: as §1

HOSE1C = test system: HOSE1C
Summary of the method: as §1

CAOV3 = test system: CAOV3
Summary of the method: as §1

COV318 = test system: COV318
Summary of the method: as §1

OVCAR5 = test system: OVCAR5
Summary of the method: as §1

OVCAR8 = test system: OVCAR8
Summary of the method: as §1

Structure (SMILES)	drug sensitivity score (OVCAR4)	drug sensitivity score (Kuramochi)	drug sensitivity score (Ovsaho)	drug sensitivity score (JHOS2)	drug sensitivity score (HOSE2C)	drug sensitivity score (COV362)	drug sensitivity score (OV90)	drug sensitivity score (HOSE1C)	drug sensitivity score (CAOV3)	drug sensitivity score (COV318)	drug sensitivity score (OVCAR5)	drug sensitivity score (OVCAR8)
CNC(=O)c1ccccc1Nc1nc(Nc2ccc3c(c2OC)CCC[C@H](N2CCN(CCO)CC2)C3)ncc1Cl	5.2	6.4	8.5	7.6	8.4	5.4	8.8	4.8	8.2	5.2	9.1	4.9
Cc1sc2c(c1C)C(c1ccc(Cl)cc1)=N[C@@H](CC(=O)Nc1ccc(O)cc1)c1nnc(C)n1-2 [Birabresib]	8.1	12.5	12.9	5.4	13.4	2.3	10.2	15.1	13.1	1.7	10.8	12.6
CCN(c1cc(-c2ccc(CN3CCOCC3)cc2)cc(C(=O)NCc2c(C)cc(C)[nH]c2=O)c1C)C1CCOCC1 [Tazemetostat]	0.1	0	0	2.1	0	2.3	0	0	0	0	0	0
CN(C)c1cc2c(cc1Sc1nc3c(N)nccc3n1CCNCC(C)(C)C)OCO2 [CUDC-305]	8.5	5.9	3	10.8	15.3	8.8	14.5	11.5	14.5	4	10.8	16.4
CNC(=O)[C@@H](NC(=O)[C@H](CC(C)C)[C@H](O)C(=O)NO)C(C)(C)C [Marimastat]	0.1	0	0	0	0	0	0.1	0	1.3	0	1.6	0.1
CC(C)c1cc(C(=O)N2Cc3ccc(CN4CCN(C)CC4)cc3C2)c(O)cc1O [Onalespib]	6.7	6.6	3.1	12.8	11.7	7.7	14.6	9.2	11.6	5	10.6	16.4
CN(Cc1cnc2nc(N)nc(N)c2n1)c1ccc(C(=O)N[C@@H](CCC(=O)O)C(=O)O)cc1 [Methotrexate]	14.8	13	2.9	6.5	13.2	14.5	10.6	13.7	16.7	0	13.8	12.3
CN1CCC(COc2cnc(-c3cccc(Cn4nc(-c5cccc(C#N)c5)ccc4=O)c3)nc2)CC1 [Tepotinib]	0	0	0.8	0.5	0	0	0	0	0	0	0	0
O=C(c1ccc(OCCN2CCCCC2)cc1)c1c(-c2ccc(O)cc2)sc2cc(O)ccc12 [Raloxifene]	0.3	2.6	3.3	1	0	1.2	1.9	0	0.5	1.8	2	1.5
COc1cc(Nc2ncc3c(n2)-c2ccc(Cl)cc2C(c2c(F)cccc2OC)=NC3)ccc1C(=O)O [Alisertib]	4.9	3.7	3.1	0.4	5.4	0	5.4	8.9	22.5	1.9	6.9	9.4
C=CC(=O)N1CC/C(=C\c2ccc(F)c([N+](=O)[O-])c2)C(=O)/C(=C/c2ccc(F)c([N+](=O)[O-])c2)C1 [VLX1570]	18.7	18	25	17.5	21.4	9.4	16.8	23.3	18.7	12.2	17.1	26.8
CC(C)Oc1ccc(C(=O)N[C@H](CNC(=O)CN(C)C)Cc2ccc(-c3cn4cccc([C@H](C)O)c4n3)cc2)cc1Cl	4.2	9	10.2	7.2	11.1	6	12	14.1	17.5	3.9	16.3	14
CO[C@H]1C[C@@H]2CC[C@@H](C)[C@@](O)(O2)C(=O)C(=O)N2CCCC[C@H]2C(=O)O[C@H]([C@H](C)C[C@@H]2CC[C@@H](OC(=O)C(C)(CO)CO)[C@H](OC)C2)CC(=O)[C@H](C)/C=C(\C)[C@@H](O)[C@@H](OC)C(=O)[C@H](C)C[C@H](C)/C=C/C=C/C=C/1C [Temsirolimus]	3.1	3.2	3	2.8	3.2	0	11.2	3.9	6.6	0	8	7.6
